Measured values: PubChem BioAssay (NCI)
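Following 48 hours of exposure in 96-well plates, responses at five concentrations were used to interpolate endpoints linearly. Definition used: TGI = concentration required for complete inhibition of growth.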

How the values were obtained:
Experiment in all cases: NCI-60 cell line screen, 48 h
SNB-19 CNS = tested on: SNB-19 CNS
ACHN renal = tested on: ACHN renal
KM12 colon = tested on: KM12 colon
SN12C renal = tested on: SN12C renal
SF-295 CNS = tested on: SF-295 CNS
U251 CNS = tested on: U251 CNS
OVCAR-4 ovarian = tested on: OVCAR-4 ovarian
MALME-3M melanoma = tested on: MALME-3M melanoma
HL-60(TB) leukemia = tested on: HL-60(TB) leukemia
CAKI-1 renal = tested on: CAKI-1 renal
K-562 leukemia = tested on: K-562 leukemia
NCI-H460 lung = tested on: NCI-H460 lung
SK-MEL-28 melanoma = tested on: SK-MEL-28 melanoma
MOLT-4 leukemia = tested on: MOLT-4 leukemia
EKVX NSCLC = tested on: EKVX NSCLC
HOP-62 NSCLC = tested on: HOP-62 NSCLC
HCC-2998 colon = tested on: HCC-2998 colon
SNB-75 CNS = tested on: SNB-75 CNS
NCI-H226 lung = tested on: NCI-H226 lung
SK-MEL-2 melanoma = tested on: SK-MEL-2 melanoma
UO-31 renal = tested on: UO-31 renal
NCI/ADR-RES ovarian = tested on: NCI/ADR-RES ovarian
UACC-257 melanoma = tested on: UACC-257 melanoma
786-0 renal = tested on: 786-0 renal
MDA-N = tested on: MDA-N
HOP-92 NSCLC = tested on: HOP-92 NSCLC
TK-10 renal = tested on: TK-10 renal
UACC-62 melanoma = tested on: UACC-62 melanoma
PC-3 prostate = tested on: PC-3 prostate
NCI-H522 lung = tested on: NCI-H522 lung
COLO 205 colon = tested on: COLO 205 colon
HCT-15 colon = tested on: HCT-15 colon
BT-549 breast = tested on: BT-549 breast
M14 melanoma = tested on: M14 melanoma
NCI-H23 lung = tested on: NCI-H23 lung
MCF7 breast = tested on: MCF7 breast
RXF 393 renal = tested on: RXF 393 renal
HCT-116 colon = tested on: HCT-116 colon
MDA-MB-231 breast = tested on: MDA-MB-231 breast
LOX IMVI melanoma = tested on: LOX IMVI melanoma
SK-OV-3 ovarian = tested on: SK-OV-3 ovarian
IGROV1 ovarian = tested on: IGROV1 ovarian
SW-620 colon = tested on: SW-620 colon
T-47D breast = tested on: T-47D breast
SF-539 CNS = tested on: SF-539 CNS
HT29 colon = tested on: HT29 colon
OVCAR-5 ovarian = tested on: OVCAR-5 ovarian
A549 NSCLC = tested on: A549 NSCLC
OVCAR-3 ovarian = tested on: OVCAR-3 ovarian
SF-268 CNS = tested on: SF-268 CNS
CCRF-CEM leukemia = tested on: CCRF-CEM leukemia
A498 renal = tested on: A498 renal
RPMI-8226 leukemia = tested on: RPMI-8226 leukemia
OVCAR-8 ovarian = tested on: OVCAR-8 ovarian
HS 578T breast = tested on: HS 578T breast
SK-MEL-5 melanoma = tested on: SK-MEL-5 melanoma
SR leukemia = tested on: SR leukemia
DU-145 prostate = tested on: DU-145 prostate
MDA-MB-435 = tested on: MDA-MB-435

In the case of Nc1ncn(C2OC(COP(=O)(O)O)C(O)C2O)c(=O)n1 (stereo not drawn), the TGI (SNB-19 CNS) is reported as greater than 100 µM, the TGI (ACHN renal) is reported as greater than 100 µM and the TGI (KM12 colon) is reported as greater than 100 µM. The TGI (SN12C renal) was greater than 100 µM, the TGI (SF-295 CNS) was greater than 100 µM and the TGI (U251 CNS) was greater than 100 µM. The TGI (OVCAR-4 ovarian) was greater than 100 µM, the TGI (MALME-3M melanoma) was greater than 100 µM and the TGI (HL-60(TB) leukemia) was greater than 100 µM. The TGI (CAKI-1 renal) was greater than 100 µM, the TGI (K-562 leukemia) was greater than 100 µM and the TGI (NCI-H460 lung) was greater than 100 µM. The TGI (SK-MEL-28 melanoma) was greater than 100 µM, the TGI (MOLT-4 leukemia) was greater than 59.2 µM and the TGI (EKVX NSCLC) was greater than 79 µM. It also gave a TGI (HOP-62 NSCLC) greater than 100 µM, a TGI (HCC-2998 colon) greater than 100 µM and a TGI (SNB-75 CNS) greater than 100 µM. The TGI (NCI-H226 lung) was greater than 100 µM, the TGI (SK-MEL-2 melanoma) was greater than 100 µM and the TGI (UO-31 renal) was greater than 100 µM. It also gave a TGI (NCI/ADR-RES ovarian) greater than 100 µM, a TGI (UACC-257 melanoma) greater than 100 µM and a TGI (786-0 renal) greater than 100 µM. It also gave a TGI (MDA-N) greater than 100 µM, a TGI (HOP-92 NSCLC) greater than 100 µM and a TGI (TK-10 renal) greater than 100 µM. For the same molecule, the TGI (UACC-62 melanoma) was greater than 100 µM, the TGI (PC-3 prostate) was greater than 100 µM and the TGI (NCI-H522 lung) was greater than 100 µM. It also gave a TGI (COLO 205 colon) greater than 100 µM, a TGI (HCT-15 colon) greater than 100 µM and a TGI (BT-549 breast) greater than 100 µM. For the same molecule, the TGI (M14 melanoma) was greater than 100 µM, the TGI (NCI-H23 lung) was greater than 100 µM and the TGI (MCF7 breast) was greater than 100 µM. It also gave a TGI (RXF 393 renal) greater than 100 µM, a TGI (HCT-116 colon) greater than 100 µM and a TGI (MDA-MB-231 breast) greater than 100 µM. For the same molecule, the TGI (LOX IMVI melanoma) was greater than 100 µM, the TGI (SK-OV-3 ovarian) was greater than 100 µM and the TGI (IGROV1 ovarian) was greater than 100 µM. For the same molecule, the TGI (SW-620 colon) was greater than 100 µM, the TGI (T-47D breast) was greater than 100 µM and the TGI (SF-539 CNS) was greater than 100 µM. The TGI (HT29 colon) was greater than 100 µM, the TGI (OVCAR-5 ovarian) was greater than 100 µM and the TGI (A549 NSCLC) was greater than 100 µM. It also gave a TGI (OVCAR-3 ovarian) greater than 100 µM, a TGI (SF-268 CNS) greater than 100 µM and a TGI (CCRF-CEM leukemia) greater than 52.4 µM. The TGI (A498 renal) was greater than 100 µM, the TGI (RPMI-8226 leukemia) was greater than 100 µM and the TGI (OVCAR-8 ovarian) was greater than 68.9 µM. It also gave a TGI (HS 578T breast) greater than 100 µM, a TGI (SK-MEL-5 melanoma) greater than 100 µM and a TGI (SR leukemia) greater than 100 µM. It also gave a TGI (DU-145 prostate) greater than 100 µM and a TGI (MDA-MB-435) greater than 73.6 µM.

Work on CSc1c2c(C)n[nH]c2nn1-c1ccccc1 yielded a TGI (SNB-19 CNS) greater than 100 µM, a TGI (KM12 colon) greater than 100 µM and a TGI (SN12C renal) greater than 100 µM. For the same molecule, the TGI (U251 CNS) was greater than 100 µM, the TGI (OVCAR-4 ovarian) was greater than 100 µM and the TGI (MALME-3M melanoma) was greater than 100 µM. It also gave a TGI (HL-60(TB) leukemia) of 93.6 µM, a TGI (CAKI-1 renal) of 87.4 µM and a TGI (K-562 leukemia) greater than 100 µM. The TGI (NCI-H460 lung) was greater than 100 µM, the TGI (SK-MEL-28 melanoma) was greater than 100 µM and the TGI (MOLT-4 leukemia) was greater than 100 µM. The TGI (EKVX NSCLC) was greater than 100 µM, the TGI (HCC-2998 colon) was greater than 100 µM and the TGI (SNB-75 CNS) was greater than 100 µM. For the same molecule, the TGI (NCI-H226 lung) was greater than 100 µM, the TGI (SK-MEL-2 melanoma) was greater than 100 µM and the TGI (UO-31 renal) was greater than 100 µM. The TGI (NCI/ADR-RES ovarian) was greater than 100 µM, the TGI (UACC-257 melanoma) was greater than 100 µM and the TGI (786-0 renal) was greater than 100 µM. For the same molecule, the TGI (MDA-N) was greater than 100 µM, the TGI (TK-10 renal) was greater than 100 µM and the TGI (UACC-62 melanoma) was greater than 100 µM. For the same molecule, the TGI (PC-3 prostate) was greater than 100 µM, the TGI (NCI-H522 lung) was greater than 100 µM and the TGI (COLO 205 colon) was greater than 100 µM. For the same molecule, the TGI (HCT-15 colon) was greater than 100 µM, the TGI (BT-549 breast) was greater than 100 µM and the TGI (M14 melanoma) was greater than 100 µM. For the same molecule, the TGI (NCI-H23 lung) was greater than 100 µM, the TGI (MCF7 breast) was greater than 100 µM and the TGI (RXF 393 renal) was greater than 100 µM. It also gave a TGI (HCT-116 colon) greater than 100 µM, a TGI (MDA-MB-231 breast) greater than 100 µM and a TGI (LOX IMVI melanoma) greater than 100 µM. For the same molecule, the TGI (SK-OV-3 ovarian) was greater than 100 µM, the TGI (SW-620 colon) was greater than 100 µM and the TGI (T-47D breast) was greater than 100 µM. The TGI (SF-539 CNS) was greater than 100 µM, the TGI (HT29 colon) was greater than 100 µM and the TGI (OVCAR-5 ovarian) was greater than 100 µM. It also gave a TGI (A549 NSCLC) greater than 100 µM, a TGI (OVCAR-3 ovarian) greater than 100 µM and a TGI (SF-268 CNS) greater than 100 µM. The TGI (CCRF-CEM leukemia) was greater than 100 µM, the TGI (A498 renal) was greater than 100 µM and the TGI (RPMI-8226 leukemia) was greater than 100 µM. For the same molecule, the TGI (OVCAR-8 ovarian) was greater than 100 µM, the TGI (HS 578T breast) was greater than 100 µM and the TGI (SK-MEL-5 melanoma) was greater than 100 µM. For the same molecule, the TGI (SR leukemia) was greater than 100 µM, the TGI (DU-145 prostate) was greater than 100 µM and the TGI (MDA-MB-435) was greater than 100 µM.
